Measured values published in US9447120B2, “Crystalline forms of zinc trisodium pentetic acid” (Hameln Pharma Plus GmbH, priority 2013, dated 2016).

Legend:
[1] = Determination of the hygroscopicity (weight increase in a stability chamber); assay type: physicochemical
Procedure: Here, the samples used were each subjected to the same pre-drying process (cf. Examples 3 and 4). The samples were exposed in each case for the time period stated in the Table at 25° C. and an air humidity of 65% relative air humidity.
The hygroscopicity of Zn-DTPA was checked by measuring the weight increase in a controlled environment. At air temperature (25±2°) C. and (60±5)% air humidity in a stability chamber (Thermo TEC), the weights of two samples (5.000 g) in each case were checked (Analytical balance, XS 205, Mettler Toledo). The weight was checked after 1, 2, 4, 6, 8, 24 and 48 hours.

[2] = lyophilized powder, over 24 h; cited from earlier work
[3] = Table 6, time 1 h, 25° C., 65% relative air humidity
[4] = Table 6, time 2 h, 25° C., 65% relative air humidity
[5] = Table 6, time 4 h, 25° C., 65% relative air humidity
[6] = Table 6, time 6 h, 25° C., 65% relative air humidity
[7] = Table 6, time 8 h, 25° C., 65% relative air humidity
[8] = Table 6, time 24 h, 25° C., 65% relative air humidity
[9] = Table 6, time 48 h, 25° C., 65% relative air humidity

Structure (SMILES) | Mean mass increase [1, 3] [%] | Mean mass increase [1, 4] [%] | Mean mass increase [1, 5] [%] | Mean mass increase [1, 6] [%] | Mean mass increase [1, 7] [%] | Mean mass increase [1, 8] [%] | Mean mass increase [1, 9] [%] | also measured
O=C([O-])CN(CCN(CC(=O)[O-])CC(=O)[O-])CCN(CC(=O)[O-])CC(=O)[O-].[Na+].[Na+].[Na+].[Zn+2] [Amorph I, trisodium zinc diethylenetriaminepentaacetate] | 0.51 | 0.89 | 1.56 | 2.35 | 2.95 | 7.38 | 11.92 | Mean mass increase ([1]; Table 1, time 1 h, product obtained by prior-art route, listed as Batch 1): 0.51%; Mean mass increase ([1]; Table 1, time 2 h, product obtained by prior-art route, listed as Batch 1): 0.89%; Mean mass increase ([1]; Table 1, time 4 h, product obtained by prior-art route, listed as Batch 1): 1.56%; Mean mass increase ([1]; Table 1, time 6 h, product obtained by prior-art route, listed as Batch 1): 2.35%; Mean mass increase ([1]; Table 1, time 8 h, product obtained by prior-art route, listed as Batch 1): 2.95%; Mean mass increase ([1]; Table 1, time 24 h, product obtained by prior-art route, listed as Batch 1): 7.38%; Mean mass increase ([1]; Table 1, time 48 h, product obtained by prior-art route, listed as Batch 1): 11.92%
O=C([O-])CN(CCN(CC(=O)[O-])CC(=O)[O-])CCN(CC(=O)[O-])CC(=O)[O-].[Na+].[Na+].[Na+].[Zn+2] [Amorph Il, trisodium zinc diethylenetriaminepentaacetate] | 0.56 | 0.97 | 1.73 | 2.61 | 3.26 | 7.82 | 12.02 | Mean mass increase ([1]; Table 1, time 1 h, product obtained by prior-art route, listed as Batch 2): 0.56%; Mean mass increase ([1]; Table 1, time 2 h, product obtained by prior-art route, listed as Batch 2): 0.97%; Mean mass increase ([1]; Table 1, time 4 h, product obtained by prior-art route, listed as Batch 2): 1.73%; Mean mass increase ([1]; Table 1, time 6 h, product obtained by prior-art route, listed as Batch 2): 2.61%; Mean mass increase ([1]; Table 1, time 8 h, product obtained by prior-art route, listed as Batch 2): 3.26%; Mean mass increase ([1]; Table 1, time 24 h, product obtained by prior-art route, listed as Batch 2): 7.82%; Mean mass increase ([1]; Table 1, time 48 h, product obtained by prior-art route, listed as Batch 2): 12.02%
O=C([O-])CN(CCN(CC(=O)[O-])CC(=O)[O-])CCN(CC(=O)[O-])CC(=O)[O-].[Na+].[Na+].[Na+].[Zn+2] [Form I, trisodium zinc diethylenetriaminepentaacetate] | 0.32 | 0.54 | 0.92 | 1.34 | 1.64 | 3.91 | 6.81 | –
O=C([O-])CN(CCN(CC(=O)[O-])CC(=O)[O-])CCN(CC(=O)[O-])CC(=O)[O-].[Na+].[Na+].[Na+].[Zn+2] [Form II, A, trisodium zinc diethylenetriaminepentaacetate] | 0.34 | 0.57 | 1.00 | 1.49 | 1.84 | 4.42 | 5.07 | –
O=C([O-])CN(CCN(CC(=O)[O-])CC(=O)[O-])CCN(CC(=O)[O-])CC(=O)[O-].[Na+].[Na+].[Na+].[Zn+2] [Form II, B, trisodium zinc diethylenetriaminepentaacetate] | 0.41 | 0.72 | 1.29 | 1.97 | 2.43 | 5.18 | 5.25 | –
O=C([O-])CN(CCN(CC(=O)[O-])CC(=O)[O-])CCN(CC(=O)[O-])CC(=O)[O-].[Na+].[Na+].[Na+].[Zn+2] [Zn-DTPA, trisodium zinc diethylenetriaminepentaacetate] | – | – | – | – | – | – | – | water absorbed [2]: more than 10 % by weight
O=C([O-])CN(CCN(CC(=O)[O-])CC(=O)[O-])CCN(CC(=O)[O-])CC(=O)[O-].[Na+].[Na+].[Na+].[Zn+2] [conventional Zn-DTPA, trisodium zinc diethylenetriaminepentaacetate] | – | – | – | – | – | – | – | behaviour due to hygroscopy ([1]; sufficiently long exposure to air humidity): deliquesces
